Data reported in ChEMBL document CHEMBL3217443, “The Discovery of Novel 10,11-Dihydro-5H-dibenz[b,f]azepine SIRT2 Inhibitors” (Medchemcomm, 2012).
One block for each compound: values may come before it. Active and inactive are the calls of the source. The rule behind the calls is not given here.

Tests used:
[1] = target: T1, NAD-dependent protein deacetylase sirtuin-2 (Homo sapiens) (UniProt Q8IXJ6); experiment: Inhibition of recombinant human full length SIRT2 using fluorescent ZMAL as substrate at 50 uM after 4 hrs by homogeneous fluorescent deacetylase assay
T1 sequence (whole entry): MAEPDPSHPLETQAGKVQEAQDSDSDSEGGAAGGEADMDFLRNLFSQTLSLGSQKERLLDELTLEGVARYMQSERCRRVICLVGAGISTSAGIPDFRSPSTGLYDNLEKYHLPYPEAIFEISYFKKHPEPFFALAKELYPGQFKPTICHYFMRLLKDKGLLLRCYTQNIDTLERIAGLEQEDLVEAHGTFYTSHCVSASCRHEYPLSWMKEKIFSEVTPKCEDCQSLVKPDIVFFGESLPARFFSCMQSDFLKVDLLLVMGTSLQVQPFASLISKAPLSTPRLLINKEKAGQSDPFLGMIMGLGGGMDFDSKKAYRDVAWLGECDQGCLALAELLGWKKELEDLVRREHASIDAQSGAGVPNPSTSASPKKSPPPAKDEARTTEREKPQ

[2] = target: T2, NAD-dependent protein deacetylase sirtuin-1 (Homo sapiens) (UniProt Q96EB6); experiment: Inhibition of recombinant human N-tagged GST-SIRT1 fusion protein using fluorescent ZMAL as substrate at 50 uM after 4 hrs by homogeneous fluorescent deacetylase assay
T2 sequence (whole entry): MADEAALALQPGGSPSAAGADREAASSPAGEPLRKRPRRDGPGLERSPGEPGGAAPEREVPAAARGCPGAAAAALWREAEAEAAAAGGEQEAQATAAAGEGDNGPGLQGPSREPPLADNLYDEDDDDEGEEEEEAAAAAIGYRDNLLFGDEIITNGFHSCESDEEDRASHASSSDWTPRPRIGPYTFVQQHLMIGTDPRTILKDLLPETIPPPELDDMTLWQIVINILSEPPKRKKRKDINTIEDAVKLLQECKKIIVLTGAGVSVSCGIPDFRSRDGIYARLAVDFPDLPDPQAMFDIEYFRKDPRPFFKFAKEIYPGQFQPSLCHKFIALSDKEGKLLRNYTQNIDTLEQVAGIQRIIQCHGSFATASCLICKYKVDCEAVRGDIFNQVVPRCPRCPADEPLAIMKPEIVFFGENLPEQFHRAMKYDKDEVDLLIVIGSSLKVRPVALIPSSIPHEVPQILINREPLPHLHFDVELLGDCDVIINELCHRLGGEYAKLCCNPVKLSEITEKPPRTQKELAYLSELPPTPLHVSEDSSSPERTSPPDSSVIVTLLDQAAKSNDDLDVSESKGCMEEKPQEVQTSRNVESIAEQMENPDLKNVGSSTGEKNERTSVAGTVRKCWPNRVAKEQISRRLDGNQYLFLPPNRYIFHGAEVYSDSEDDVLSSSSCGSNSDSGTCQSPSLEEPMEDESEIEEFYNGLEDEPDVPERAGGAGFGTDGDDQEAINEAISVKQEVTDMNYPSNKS

[3] = target: T3, NAD-dependent protein deacetylase sirtuin-2 (Homo sapiens, UniProt Q8IXJ6); experiment: Inhibition of recombinant human full length SIRT2 using fluorescent ZMAL as substrate after 4 hrs by homogeneous fluorescent deacetylase assay
T3 sequence (Q8IXJ6 whole entry): T1 sequence (whole entry)

[4] = target: T1, NAD-dependent protein deacetylase sirtuin-2 (Homo sapiens); experiment: Inhibition of SIRT2 in human MCF7 cells assessed as increase in hyperacetylation of alpha-tubulin up to 50 uM after 24 hrs by Western blot analysis; type: cell-based
MCF7 [5] = experiment: Cell cycle arrest in human MCF7 cells assessed as accumulation at sub-G1 phase at 50 uM after 24 hrs by flow cytometry (reference value: 0.3 %); type: functional
[6] = target: T2, NAD-dependent protein deacetylase sirtuin-1 (Homo sapiens); experiment: Inhibition of SIRT1 in human MCF7 cells assessed as increase in acetylation of p53 at lys 382 at 50 uM after 24 hrs by Western blot analysis; type: cell-based
MCF7 [7] = experiment: Cell cycle arrest in human MCF7 cells assessed as accumulation at G2-M phase at 50 uM after 24 hrs by flow cytometry (reference value: 22.6 %); type: functional
Homo sapiens = species on record: Homo sapiens; experiment: Selectivity ratio of IC50 for recombinant human N-tagged GST-SIRT1 fusion protein to IC50 for recombinant human full length SIRT2
MCF7 [8] = experiment: Antiproliferative activity against human MCF7 cells at 30 uM after 24 to 72 hrs; type: functional
[9] = target: T2, NAD-dependent protein deacetylase sirtuin-1 (Homo sapiens); experiment: Inhibition of recombinant human N-tagged GST-SIRT1 fusion protein using fluorescent ZMAL as substrate at 100 uM after 4 hrs by homogeneous fluorescent deacetylase assay
[10] = target: T1, NAD-dependent protein deacetylase sirtuin-2 (Homo sapiens); experiment: Inhibition of SIRT2 in human MCF7 cells assessed as decrease in phosphorylation of pRB at Ser807/Ser811 at 50 uM after 24 hrs by Western blot analysis; type: cell-based
[11] = target: T2, NAD-dependent protein deacetylase sirtuin-1 (Homo sapiens); experiment: Inhibition of SIRT1 in human MCF7 cells assessed as increase in acetylation of H3-K9 up to 50 uM after 24 hrs by Western blot analysis; type: cell-based
[12] = target: T2, NAD-dependent protein deacetylase sirtuin-1 (Homo sapiens); experiment: Inhibition of recombinant human N-tagged GST-SIRT1 fusion protein using fluorescent ZMAL as substrate at 500 uM after 4 hrs by homogeneous fluorescent deacetylase assay
MCF7 [13] = experiment: Cell cycle arrest in human MCF7 cells assessed as accumulation at S phase at 50 uM after 24 hrs by flow cytometry (reference value: 30.8 %); type: functional
MCF7 [14] = experiment: Cell cycle arrest in human MCF7 cells assessed as accumulation at G1 phase at 50 uM after 24 hrs by flow cytometry (reference value: 43.5 %); type: functional
[15] = target: T4, NAD-dependent protein deacetylase sirtuin-1 (Homo sapiens, UniProt Q96EB6)
T4 sequence (Q96EB6 whole entry): T2 sequence (whole entry)
Description: Inhibition of recombinant human N-tagged GST-SIRT1 fusion protein using fluorescent ZMAL as substrate after 4 hrs by homogeneous fluorescent deacetylase assay

Compound: NC(=O)c1ccc2c(c1)CCc1ccccc1N2
inhibition [1]: < 25%
inhibition [2]: < 25%

Compound: NC(=O)N1c2ccccc2CCc2ccccc21
inhibition [1]: < 25%
inhibition [2]: < 25%

Compound: O=[N+]([O-])c1ccc2c(c1)Nc1ccccc1CC2
inhibition [1]: < 25%
inhibition [2]: < 25%

Compound: CC(C)(C)NC(=O)c1ccc2c(c1)CCc1ccccc1N2
IC50 [3]: 100 µM
inhibition [2]: < 25%

Compound: OCc1ccc2c(c1)CCc1cc(CO)ccc1N2
inhibition [1]: < 25%
inhibition [2]: < 25%

Compound: O=[N+]([O-])c1ccc2c(c1)CCc1ccccc1N2
inhibition [1]: < 25%
inhibition [2]: < 25%

Compound: N#Cc1ccc2c(c1)CCc1cc(C#N)ccc1N2
inhibition [1]: < 25%
inhibition [2]: < 25%

Compound: c1ccc2c(c1)CCc1ccccc1N2
inhibition [1]: < 25%
inhibition [2]: < 25%

Compound: OCc1ccc2c(c1)CCc1cccc(CO)c1N2
inhibition [1]: < 25%
inhibition [2]: < 25%

Compound: CC(C(=O)Nc1cccc(/N=C/c2c(O)ccc3ccccc23)c1)c1ccccc1 (stereo not drawn) [SALERMIDE]
IC50 [3]: 45 µM
inhibition [4]: Active
Activity (MCF7 [5]): 1.1%
inhibition [6]: Active
Activity (MCF7 [7]): 26.4%
Activity (MCF7 [8]): Active
IC50 [15]: 76 µM
inhibition [11]: inactive
Activity (MCF7 [13]): 16.4%
Activity (MCF7 [14]): 56.1%

Compound: CC(NC(=O)c1ccccc1/N=C/c1c(O)ccc2ccccc12)c1ccccc1 (stereo not drawn) [SIRTINOL]
inhibition [4]: inactive
Activity (MCF7 [5]): 0.7%
inhibition [6]: Active
Activity (MCF7 [7]): 18%
Activity (MCF7 [8]): Active
inhibition [11]: inactive
Activity (MCF7 [13]): 9.7%
Activity (MCF7 [14]): 71.5%

Compound: O=C(Nc1cccc(Br)c1)c1cccc(S(=O)(=O)N2CCCCCC2)c1
Activity (MCF7 [5]): 0.4%
inhibition [6]: Active
Activity (MCF7 [7]): 25.3%
inhibition [2]: < 25%
inhibition [11]: inactive
Activity (MCF7 [13]): 20%
Activity (MCF7 [14]): 54.3%

Compound: CC(C)(C)NS(=O)(=O)c1ccc2c(c1)Nc1ccccc1CC2
IC50 [3]: 29.8 µM
inhibition [9]: 12%

Compound: NC(=O)C1CCCc2c1[nH]c1ccc(Cl)cc21 (stereo not drawn)
Activity (MCF7 [5]): 1.2%
Activity (MCF7 [7]): 15.7%
Activity (MCF7 [8]): 50%
Activity (MCF7 [13]): 10.3%
Activity (MCF7 [14]): 73.8%

Compound: NC(=O)c1cccc2c1Nc1ccccc1CC2
inhibition [1]: < 25%
inhibition [2]: < 25%

Compound: N#Cc1ccc2c(c1)CCc1ccccc1N2
inhibition [1]: < 25%
inhibition [2]: < 25%

Compound: NC(=O)c1ccc2c(c1)CCc1cccc(CO)c1N2
inhibition [1]: < 25%
inhibition [2]: < 25%

Second part, led by results:

inhibition [1]: < 25%
inhibition [2]: < 25%
Compound: NC(=O)c1ccc2c(c1)CCc1cc(Cl)ccc1N2

inhibition [1]: < 25%
inhibition [2]: < 25%
Compound: NC(=O)c1ccc2c(c1)CCc1cc(C(N)=O)ccc1N2

inhibition [1]: < 25%
inhibition [2]: < 25%
Compound: N#Cc1ccc2c(c1)CCc1cc(C(N)=O)ccc1N2

inhibition [1]: < 25%
inhibition [2]: < 25%
Compound: N#Cc1ccc2c(c1)CCc1cc([N+](=O)[O-])ccc1N2

IC50 [3]: 17.6 µM
inhibition [4]: Active
inhibition [6]: inactive
Ratio IC50 (Homo sapiens): > 30
inhibition [9]: 1%
inhibition [10]: Active
inhibition [11]: inactive
inhibition [12]: 11%
Compound: NC(=O)c1ccc2c(c1)CCc1cc([N+](=O)[O-])ccc1N2
Activity (MCF7 [5]): 0.9%
Activity (MCF7 [7]): 38.9%
Activity (MCF7 [8]): Active
Activity (MCF7 [13]): 18%
Activity (MCF7 [14]): 42.2%

inhibition [1]: < 25%
inhibition [2]: < 25%
Compound: NC(=O)c1ccc2c(c1)CCc1cc(N)ccc1N2

IC50 [3]: 77.5 µM
inhibition [9]: 23%
Compound: CN1c2ccc(C(N)=O)cc2CCc2cc([N+](=O)[O-])ccc21

inhibition [1]: < 25%
inhibition [2]: < 25%
Compound: NC(=O)c1ccc2c(c1)CCc1cccc([N+](=O)[O-])c1N2
